Source: US20240108745A1, “BIOACTIVE SUBSTANCE CONJUGATE, PREPARATION METHOD THEREFOR AND USE THEREOF” (MEDILINK THERAPEUTICS (SUZHOU) CO., LTD., priority 2021, published 2024)

Tests used:
Assay type in all cases: cell-based
[1] = system: HT29; experiment: Assay II of bioactive molecules on cell viability in vitro (CCK8); conditions: Homo sapiens, HT-29; CCK8, 3-4 days
Experimental: (§1) Tumor cells NUCG-4, PC-9, HT29, NCI-H358, KYSE520, A431 and A549 were first cultured; the bioactive molecules or fragments of the present disclosure were co-cultured with tumor cells, and then CCK8 reagent (Dojindo Laboratories (Shanghai), Cat: CK04, Lot: JJ744) was added, and the activity of dehydrogenase in mitochondria was detected by reading (detection wavelength 450 nm) on a microplate reader (manufacturer: Molecular Devices, model: SpectraMax M2), to evaluate the inhibitory effect of bioactive molecules on cell proliferation.
In vitro cell viability assay method: the tumor cells were digested by conventional methods using trypsin, and cells in tube were collected and counted, and then resuspended in the corresponding assay media (containing 2% FBS), which was added to a 96-well plate at 5000-10000 cells/well. Bioactive molecules were diluted with DMSO, and then 100 μL was added to a 96-well plate, the initial concentration was 10 μM, followed by 3-fold serial dilution (12 concentration gradients). The plate was incubated for 3-4 days at 37° C. under 5% CO2. Then, 20 μL of CCK8 reagent was added to each well, and the reaction was carried out for 2-6 h. The plate was read on a microplate reader (detection wavelength was 450 nm).

[2] = system: NCl-H358 cells; experiment: Assay I of bioactive molecules on cell viability in vitro (CCK8); conditions: Homo sapiens, read-out: EC50(nM), killing of NCl-H358 cells
Experimental: as §1, with “cells” for “cells NUCG-4, PC-9, HT29, NCI-H358, KYSE520, A431 and A549”, “molecules” for “molecules or fragments”
(§2) In vitro cell viability assay method: bioactive molecules (12 concentration gradients) were diluted with corresponding assay medium (containing 2% FBS). The tumor cells were digested by conventional methods using trypsin, and cells in tube were collected and counted, then resuspended in the corresponding assay media (containing 2% FBS). The diluted bioactive molecules were added to a 96-well plate, followed by the cells. Then, 20 μL of CCK8 reagent was added to each well, and the reaction was carried out for 4 h, then the plate was read on a microplate reader (detection wavelength was 450 nm). The experimental results are shown in Tables 6.1, 6.2, 6.3, 6.4, and 6.5.

[3] = system: NCl-H322M cells; experiment: as above; conditions: Homo sapiens, read-out: EC50(nM), killing of NCl-H322M cells
Experimental: as §1, with “cells” for “cells NUCG-4, PC-9, HT29, NCI-H358, KYSE520, A431 and A549”, “molecules” for “molecules or fragments”
as §2

[4] = system: HT29 cells; experiment: as above; conditions: Homo sapiens, HT-29, CCK8; read-out: EC50(nM), killing of HT29 cells
Experimental: as §1, with “cells” for “cells NUCG-4, PC-9, HT29, NCI-H358, KYSE520, A431 and A549”, “molecules” for “molecules or fragments”
as §2

[5] = system: HCC1806 cells; experiment: as above; conditions: Homo sapiens, HCC1806, 72 h; 7500 cells/well, 3 days; read-out: EC50(nM), killing of HCC1806 cells
Experimental: as §1, with “cells” for “cells NUCG-4, PC-9, HT29, NCI-H358, KYSE520, A431 and A549”, “molecules” for “molecules or fragments”
as §2

[6] = system: PANC-1 cells; experiment: as above; conditions: Homo sapiens, read-out: EC50(nM), killing of PANC-1 cells
Experimental: as §1, with “cells” for “cells NUCG-4, PC-9, HT29, NCI-H358, KYSE520, A431 and A549”, “molecules” for “molecules or fragments”
as §2

CC[C@@]1(O)C(=O)OCc2c1cc1n(c2=O)Cc2c-1nc1cc3c(cc1c2CCCO)OCO3 [Example A1.9, (S)-7-ethyl-7-hydroxy-14-(3-hydroxypropyl)-10,13-dihydro-11H-[1,3]dioxolo[4,5-g]pyrano[3′,4′:6,7]indolizino[1,2-b]quinolin-8,11(7H)-dione]
EC50 [1]: 20.3 nM
EC50 [2]: 60.8 nM
EC50 [3]: 30.4 nM
EC50 [4]: 57.5 nM
EC50 [5]: 1.9 nM
EC50 [6]: 94.5 nM
